Measurements from ChEMBL document CHEMBL6153146, “Secondary Metabolites of the Lichen Lethariella cladonioides and Their Neuroprotective Potential” (J Nat Prod, 2025).
Active and inactive are the calls of the source. The rule behind the calls is not given here.

Assays:
[1] = biological target: Acetylcholinesterase (Homo sapiens, UniProt P22303); test: Inhibition of AChe (unknown origin) incubated for 0.25 hrs by DTNB-reagent based Ellman's method
[2] = test system: RAW264.7; test: Anti-inflammatory activity in mouse RAW264.7 cells assessed as inhibition of LPS-induced NO production incubated for 36 hrs by Griess assay; assay type: functional, cell-based; details: for IC50: RAW264.7, 36 h
[3] = test system: RAW264.7; test: Anti-inflammatory activity in mouse RAW264.7 cells assessed as downregulation of the LPS-induced IL-10 mRNA expression at 12.5 to 50 uM by qRT-PCR analysis; assay type: functional, cell-based; details: dose 12.5-50 µM
[4] = test system: RAW264.7; test: Anti-inflammatory activity in mouse RAW264.7 cells assessed as alleviation of LPS-induced IL-6 mRNA expression level at 12.5 to 50 uM by qRT-PCR analysis; assay type: functional, cell-based; details: dose 12.5-50 µM
[5] = test system: RAW264.7; test: Anti-inflammatory activity in mouse RAW264.7 cells assessed as alleviation of LPS-induced IL-1 beta mRNA expression level at 12.5 to 50 uM by qRT-PCR analysis; assay type: functional, cell-based; details: dose 12.5-50 µM
[6] = test system: RAW264.7; test: Anti-inflammatory activity in mouse RAW264.7 cells assessed as alleviation of LPS-induced TNF-alpha mRNA expression level at 12.5 to 50 uM by qRT-PCR analysis; assay type: functional, cell-based; details: dose 12.5-50 µM
[7] = test system: RAW264.7; test: Anti-inflammatory activity in mouse RAW264.7 cells assessed as alleviation of LPS-induced cox-2 mRNA expression level at 12.5 to 50 uM by qRT-PCR analysis; assay type: functional, cell-based; details: dose 12.5-50 µM
[8] = test system: RAW264.7; test: Anti-inflammatory activity in mouse RAW264.7 cells assessed as downregulation of the LPS-induced iNOS expression at 12.5 to 50 uM by qRT-PCR analysis; assay type: functional, cell-based; details: dose 12.5-50 µM
[9] = test system: RAW264.7; test: Anti-inflammatory activity in mouse RAW264.7 cells assessed as alleviation of LPS-induced IL-6 mRNA expression level at 10 to 40 uM by qRT-PCR analysis; assay type: functional, cell-based; details: dose 10-40 µM
[10] = test system: RAW264.7; test: Anti-inflammatory activity in mouse RAW264.7 cells assessed as alleviation of LPS-induced IL-1 beta mRNA expression level at 10 to 40 uM by qRT-PCR analysis; assay type: functional, cell-based; details: dose 10-40 µM
[11] = test system: RAW264.7; test: Anti-inflammatory activity in mouse RAW264.7 cells assessed as alleviation of LPS-induced TNF-alpha mRNA expression level at 10 to 40 uM by qRT-PCR analysis; assay type: functional, cell-based; details: dose 10-40 µM
[12] = test system: RAW264.7; test: Anti-inflammatory activity in mouse RAW264.7 cells assessed as alleviation of LPS-induced COX-2 mRNA expression level at 10 to 40 uM by qRT-PCR analysis; assay type: functional, cell-based; details: dose 10-40 µM

Chain of Acetylcholinesterase (P22303 whole entry): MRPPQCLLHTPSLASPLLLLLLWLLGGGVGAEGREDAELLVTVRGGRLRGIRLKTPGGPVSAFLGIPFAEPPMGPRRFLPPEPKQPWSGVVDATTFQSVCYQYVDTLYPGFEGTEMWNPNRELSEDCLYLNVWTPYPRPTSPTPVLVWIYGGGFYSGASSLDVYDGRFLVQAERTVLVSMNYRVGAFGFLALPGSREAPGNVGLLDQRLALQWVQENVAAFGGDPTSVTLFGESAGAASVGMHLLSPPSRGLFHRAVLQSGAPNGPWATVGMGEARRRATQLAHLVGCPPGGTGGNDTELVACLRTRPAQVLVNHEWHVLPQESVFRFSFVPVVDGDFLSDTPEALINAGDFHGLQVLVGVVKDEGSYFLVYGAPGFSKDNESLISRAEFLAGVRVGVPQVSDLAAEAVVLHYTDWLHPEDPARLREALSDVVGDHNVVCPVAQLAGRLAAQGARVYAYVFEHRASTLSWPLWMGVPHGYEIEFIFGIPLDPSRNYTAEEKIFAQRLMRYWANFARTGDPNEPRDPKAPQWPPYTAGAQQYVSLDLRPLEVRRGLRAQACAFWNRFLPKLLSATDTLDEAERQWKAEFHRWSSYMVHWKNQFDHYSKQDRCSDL

SMILES | IC50 [1] [µM] | Activity [2] | also measured
OCc1cc(O)cc(O)c1 | 28 | inactive | –
COC(=O)c1c(C)cc(O)cc1O [METHYL ORSELLINATE] | 24 | inactive | –
CCOC(=O)c1c(C)cc(OC(=O)c2c(C)cc(O)cc2O)cc1O | 15 | inactive | –
CCOC(=O)c1c(O)cc(O)c(Cc2c(O)cc(C)c(C(=O)OC)c2O)c1C | 20 | – | IC50 [2]: 35 µM; Activity [3]: Active
CCOC(=O)c1c(O)cc(O)c(Cc2c(O)cc(C)c(C(=O)OCC)c2O)c1C | 19 | inactive | –
CCOC(=O)c1c(C)cc(O)c(Cc2c(C)c(C(=O)OC)c(O)c(C)c2O)c1O | – | – | IC50 [2]: 28 µM; Activity [4]: Active; Activity [5]: Active; Activity [6]: Active; Activity [7]: Active; Activity [8]: Active
COC(=O)c1c(C)cc(O)c(Cc2c(C)c(C(=O)OC)c(O)c(C)c2O)c1O | – | – | IC50 [2]: 20 µM; Activity [9]: Active; Activity [10]: Active; Activity [11]: Active; Activity [12]: Active
Cc1cc(O)cc(OC(=O)c2c(C)cc(O)c(C=O)c2O)c1 | 15 | inactive | –
Cc1cc(O)cc(O)c1C(=O)O [ORSELLINIC ACID] | 26 | inactive | –
COC(=O)c1c(C)cc(O)c(Cc2c(O)cc(C)cc2O)c1O | 15 | inactive | –
COCc1c(O)c(Oc2c(C=O)c(O)cc(C)c2C(=O)OC)c2c(c1O)C(=O)O[C@H]2O | 7.1 | inactive | –
CC(=O)C1=C(O)C=C2Oc3c(C(C)=O)c(O)c(C)c(O)c3[C@@]2(C)C1=O [(+)-USNIC ACID] | 28 | inactive | –
Cc1cc(O)c(C)c(O)c1 | 25 | inactive | –
